The values that follow come from patent US20250318524A1, “ANTIMICROBIAL COATING COMPOSITION AND METHOD OF USE THEREOF” (priority 2024, published 2025).

The data set can be described thus: Selection of antimicrobial agents: solubility in aqueous solution, stability, compatibility with the coating composition. As to conditions: 20 wt. % in aqueous solution, during storage.

Take `N=C(NCCCCCCNC(=N)NC(=N)Nc1ccc(Cl)cc1)NC(=N)Nc1ccc(Cl)cc1.O=C(O)[C@H](O)[C@@H](O)[C@H](O)[C@H](O)CO.O=C(O)[C@H](O)[C@@H](O)[C@H](O)[C@H](O)CO` [Chlorhexidine gluconate, chlorhexidine gluconate]: the “colour of solution over time” value is reported as “turned dark brown”.
